This experiment has as its system human JAK1. The experiment is described as follows: In vitro JAK kinase assay (HTRF, phosphorylation of biotinylated peptide), JAK1. Particulars: ratio of JAK2 IC50 to JAK1 IC50, 1 mM ATP. It is filed as biochemical. As for the experimental part:
Compounds herein were tested for inhibitory activity of JAK targets according to the following in vitro assay described in Park et al., Analytical Biochemistry 1999, 269, 94-104. The catalytic domains of human JAK1 (a.a. 837-1142), JAK2 (a.a. 828-1132) and JAK3 (a.a. 781-1124) were expressed using baculovirus in insect cells and purified. The catalytic activity of JAK1, JAK2 or JAK3 was assayed by measuring the phosphorylation of a biotinylated peptide. The phosphorylated peptide was detected by homogenous time resolved fluorescence (HTRF). IC50s of compounds were measured for each kinase in the 40 μL reactions that contain the enzyme, ATP and 500 nM peptide in 50 mM Tris (pH 7.8) buffer with 100 mM NaCl, 5 mM DTT, and 0.1 mg/mL (0.01%) BSA. For the 1 mM IC50 measurements, ATP concentration in the reactions was 1 mM. Reactions were carried out at room temperature for 1 hour and then stopped with 20 μL 45 mM EDTA, 300 nM SA-APC, 6 nM Eu-Py20 in assay buffer (Perkin Elmer, Boston, Mass.). Binding to the Europium labeled antibody took place for 40 minutes and HTRF signal was measured on a PHERA star plate reader (BMG, Cary, N.C.). The Example compounds were each tested in the Example A assay (see Table 1 for data for the compounds of the examples as tested by the assay of Example A at 1 mM ATP).
(In general: TR-FRET usually uses a lanthanide donor and a delayed reading to cut background.)

Where a name gives a salt, the structure may show the parent alone. Where only a bound is given, the exact number is not on record here.

For the compound `Cc1nc2cnc3ccsc3c2n1[C@@H]1CC[C@@H](CC#N)[C@@H](O)C1` (mixture of isomers) [Example 34, Mixture of [(1R, 2R, 4S)-2-hydroxy-4-(2-methyl-1H-imidazo[4,5-d]thieno[3,2-b]pyridin-1-yl)cyclohexyl]acetonitrile trifluoroacetate and [(1S, 2S, 4R)-2-hydroxy-4-(2-methyl-1H-imidazo[4,5-d]thieno[3,2-b]pyridin-1-yl)cyclohexyl]acetonitrile trifluoroacetate], the JAK2/JAK1 was >10.

Consider `CCc1nc2cnc3ccsc3c2n1[C@@H]1CC[C@@H](CC#N)[C@@H](O)C1` (mixture of isomers) [Example 35], for which the JAK2/JAK1 is >10.

As to `C[C@@H](O)c1nc2cnc3ccsc3c2n1C1CCC(O)(CC#N)CC1` (single isomer, unassigned) [24 (first peak)], the JAK2/JAK1 is on record as >10.

On to `C[C@@H](O)c1nc2cnc3ccsc3c2n1C1CCC(O)(CC#N)CC1` (single isomer, unassigned) [24 (second peak)], for which the JAK2/JAK1 is recorded as >10.

As to `C[C@@H](O)c1nc2cnc3ccsc3c2n1C1CCC(NCCC#N)CC1` (single isomer, unassigned) [30 (first peak)], the JAK2/JAK1 is on record as >2.

`C[C@@H](O)c1nc2cnc3ccsc3c2n1C1CCC(NCCC#N)CC1` (single isomer, unassigned) [30 (second peak)]: the JAK2/JAK1 is recorded as >10.

Turning to `N#CCC1CCC(CO)(n2cnc3cnc4ccsc4c32)CC1` (single isomer, unassigned) [72 (second peak), [4-(Hydroxymethyl)-4-(1H-imidazo[4,5-d]thieno[3,2-b]pyridin-1-yl)cyclohexyl]acetonitrile], the JAK2/JAK1 is reported as >5.

Take `C[C@@H](O)c1nc2cnc3ccsc3c2n1C1CCNCC1F` (stereo partly drawn) [9 (2nd peak), (1R)-1-[1-(3-Fluoropiperidin-4-yl)-1H-imidazo[4,5-d]thieno[3,2-b]pyridin-2-yl]ethanol]: the JAK2/JAK1 was >10.

Take `C[C@@H](O)c1nc2cnc3ccsc3c2n1[C@H]1CCCOC1` [Example 1, (1R)-1-{1-[(3S)-Tetrahydro-2H-pyran-3-yl]-1H-imidazo[4,5-d]thieno[3,2-b]pyridin-2-yl}ethanol]: the JAK2/JAK1 is on record as >3.

Turning to `C[C@@H](O)c1nc2cnc3ccsc3c2n1[C@H]1CC[C@H](CC#N)CC1` [Example 2, (trans-4-{2-[(1R)-1-Hydroxyethyl]-1H-imidazo[4,5-d]thieno[3,2-b]pyridin-1-yl}cyclohexyl)acetonitrile], the JAK2/JAK1 is >10.

For `C[C@@H](O)c1nc2cnc3ccsc3c2n1[C@H]1CC[C@H](O)CC1` [Example 3, trans-4-{2-[(1R)-1-Hydroxyethyl]-1H-imidazo[4,5-d]thieno[3,2-b]pyridin-1-yl}cyclohexanol], the JAK2/JAK1 is recorded as >10.

As for `C[C@@H](O)c1nc2cnc3ccsc3c2n1[C@H]1CC[C@H](NCC(F)(F)F)CC1` [Example 4, (1R)-1-(1-{trans-4-[(2,2,2-Trifluoroethyl)amino]cyclohexyl}-1H-imidazo[4,5-d]thieno[3,2-b]pyridin-2-yl)ethanol], the JAK2/JAK1 is >10.

Take `C[C@@H](O)c1nc2cnc3ccsc3c2n1[C@H]1CC[C@H](CCS(C)(=O)=O)CC1` [Example 5, (1R)-1-(1-{trans-4-[2-(Methylsulfonyl)ethyl]cyclohexyl}-1H-imidazo[4,5-d]thieno[3,2-b]pyridin-2-yl)ethanol]: the JAK2/JAK1 was >10.

Turning to `C[C@@H](O)c1nc2cnc3ccsc3c2n1[C@H]1CC[C@@H](n2cncn2)CC1` [Example 6, (1R)-1-{1-[cis-4-(1H-1,2,4-Triazol-1-yl)cyclohexyl]-1H-imidazo[4,5-d]thieno[3,2-b]pyridin-2-yl}ethanol], the JAK2/JAK1 is reported as >6.

Regarding `C[C@@H](O)c1nc2cnc3ccsc3c2n1[C@H]1CC[C@@H](C#N)CC1` [Example 7, cis-4-{2-[(1R)-1-Hydroxyethyl]-1H-imidazo[4,5-d]thieno[3,2-b]pyridin-1-yl}cyclohexanecarbonitrile], the JAK2/JAK1 is >10.

With `C[C@@H](O)c1nc2cnc3ccsc3c2n1[C@H]1CC[C@H](CCC#N)CC1` [Example 8, 3-(trans-4-{2-[(1R)-1-Hydroxyethyl]-1H-imidazo[4,5-d]thieno[3,2-b]pyridin-1-yl}cyclohexyl)propanenitrile], the JAK2/JAK1 is given as >10.

Turning to `C[C@@H](O)c1nc2cnc3ccsc3c2n1[C@H]1CC[C@H](CC#N)CC1.Cl` [Example 10, (trans-4-{2-[(1R)-1-Hydroxyethyl]-1H-imidazo[4,5-d]thieno[3,2-b]pyridin-1-yl}cyclohexyl)acetonitrile HCl salt], the JAK2/JAK1 was >10.

As for `C[C@@H](O)c1nc2cnc3ccsc3c2n1[C@H]1CC[C@H](CO)CC1` [Example 11, (1R)-1-{1-[trans-4-(Hydroxymethyl)cyclohexyl]-1H-imidazo[4,5-d]thieno[3,2-b]pyridin-2-yl}ethanol], the JAK2/JAK1 is >10.

As for `C[C@@H](O)c1nc2cnc3ccsc3c2n1[C@H]1CC[C@H](CF)CC1` [Example 12, (1R)-1-{1-[trans-4-(Fluoromethyl)cyclohexyl]-1H-imidazo[4,5-d]thieno[3,2-b]pyridin-2-yl}ethanol], the JAK2/JAK1 was >10.

Regarding `C[C@@H](O)c1nc2cnc3ccsc3c2n1C1CCCCC1` [Example 13, (1R)-1-(1-Cyclohexyl-1H-imidazo[4,5-d]thieno[3,2-b]pyridin-2-yl)ethanol], the JAK2/JAK1 is on record as >10.

For the compound `CNS(=O)(=O)C[C@H]1CC[C@H](n2c([C@@H](C)O)nc3cnc4ccsc4c32)CC1` [Example 14, 1-(trans-4-{2-[(1R)-1-hydroxyethyl]-1H-imidazo[4,5-d]thieno[3,2-b]pyridin-1-yl}cyclohexyl)-N-methylmethanesulfonamide], the JAK2/JAK1 is >5.

In the case of `C[C@@H](O)c1nc2cnc3ccsc3c2n1C1CCN(CC(F)(F)F)CC1` [Example 15, (1R)-1-{1-[1-(2,2,2-Trifluoroethyl)piperidin-4-yl]-1H-imidazo[4,5-d]thieno[3,2-b]pyridin-2-yl}ethanol], the JAK2/JAK1 is reported as >9.

On to `C[C@@H](O)c1nc2cnc3ccsc3c2n1C1CCN(CCC#N)CC1` [Example 16, 3-(4-{2-[(1R)-1-Hydroxyethyl]-1H-imidazo[4,5-d]thieno[3,2-b]pyridin-1-yl}piperidin-1-yl)propanenitrile], for which the JAK2/JAK1 is reported as >10.

For the compound `N#CC[C@H]1CC[C@H](n2c(CO)nc3cnc4ccsc4c32)CC1` [Example 17, {trans-4-[2-(Hydroxymethyl)-1H-imidazo[4,5-d]thieno[3,2-b]pyridin-1-yl]cyclohexyl}acetonitrile], the JAK2/JAK1 is reported as >10.

Take `CS(=O)(=O)NCc1nc2cnc3ccsc3c2n1[C@H]1CC[C@H](CC#N)CC1` [Example 18, N-({1-[trans-4-(Cyanomethyl)cyclohexyl]-1H-imidazo[4,5-d]thieno[3,2-b]pyridin-2-yl}methyl)methanesulfonamide]: the JAK2/JAK1 is >10.

For the compound `C[C@@H](O)c1nc2cnc3ccsc3c2n1[C@H]1CCC(CO)OC1` (stereo partly drawn) [Example 19, (1R)-1-{1-[(3S)-6-(Hydroxymethyl)tetrahydro-2H-pyran-3-yl]-1H-imidazo[4,5-d]thieno[3,2-b]pyridin-2-yl}ethanol], the JAK2/JAK1 is given as >10.

As to `C[C@@H](O)c1nc2cnc3ccsc3c2n1[C@H]1CC[C@H](CC#N)OC1` [Example 20, ((2R,5S)-5-{2-[(1R)-1-Hydroxyethyl]-1H-imidazo[4,5-d]thieno[3,2-b]pyridin-1-yl}tetrahydro-2H-pyran-2-yl)acetonitrile], the JAK2/JAK1 is given as >10.

Consider `C[C@@H](O)c1nc2cnc3ccsc3c2n1[C@H]1CC[C@@H](CC#N)OC1` [Example 21, ((2S,5S)-5-{2-[(1R)-1-Hydroxyethyl]-1H-imidazo[4,5-d]thieno[3,2-b]pyridin-1-yl}tetrahydro-2H-pyran-2-yl)acetonitrile], for which the JAK2/JAK1 was >10.

`CS(=O)(=O)NCc1nc2cnc3ccsc3c2n1[C@H]1CC2CCC1C2` (stereo partly drawn) [Example 22, N-((1-((2S)-Bicyclo[2.2.1]heptan-2-yl)-1H-imidazo[4,5-d]thieno[3,2-b]pyridin-2-yl)methyl)methanesulfonamide]: the JAK2/JAK1 is given as >4.

Consider `C[C@@H](O)c1cc2cnc3ccsc3c2n1[C@H]1CC[C@H](CC#N)CC1` [Example 23, (trans-4-{7-[(1R)-1-Hydroxyethyl]-8H-pyrrolo[2,3-d]thieno[3,2-b]pyridin-8-yl}cyclohexyl)acetonitrile], for which the JAK2/JAK1 is >10.

On to `N#CC[C@H]1CC[C@H](n2/c(=N/C#N)[nH]c3cnc4ccsc4c32)CC1.O=C(O)C(F)(F)F` [Example 25, {(2E)-1-[trans-4-(Cyanomethyl)cyclohexyl]-1,3-dihydro-2H-imidazo[4,5-d]thieno[3,2-b]pyridin-2-ylidene}cyanamide trifluoroacetate], for which the JAK2/JAK1 is reported as >6.

On to `N#CC[C@H]1CC[C@H](n2c(C3CC3)nc3cnc4ccsc4c32)CC1` [Example 26, [trans-4-(2-Cyclopropyl-1H-imidazo[4,5-d]thieno[3,2-b]pyridin-1-yl)cyclohexyl]acetonitrile], for which the JAK2/JAK1 is recorded as >10.

Regarding `CC(C)c1nc2cnc3ccsc3c2n1[C@H]1CC[C@H](CC#N)CC1` [Example 27, [trans-4-(2-Isopropyl-1H-imidazo[4,5-d]thieno[3,2-b]pyridin-1-yl)cyclohexyl]acetonitrile], the JAK2/JAK1 is reported as >10.

The record behind these values is patent publication US10370387B2, “Tricyclic fused thiophene derivatives as JAK inhibitors” (Incyte Corporation, priority 2012, dated 2019).
